Measurements published in US7064139B2, “Method for treating retroviral infections” (Uniroyal Chemical Company, Inc., priority 2001, dated 2006).
In brackets after ≈: the same amount, converted by molar mass.

Tests used:
HIV-1 (IIIB) = assay: microbe, parasite or virus in culture; assay type: cell-based; conditions: for EC50 (ug/ml) HIV-1 / EC50: CEM cells, syncytium formation, day four post infection; for HIV-1 % Protection: protection of CEM cells against virus-induced cytopathicity at the concentration in the previous column; for EC50: Human immunodeficiency virus 1, IIIB, CCRF-CEM, read-out: EC50 (ug/ml) HIV-1
Source text: (§1) The cell type used to determine activity of the compounds of the invention herein, i.e., the test compounds, against HIV was human T-lymphoblast (CEM) cells obtained from the American Tissue Cell Culture Collection (Rockville, Md.). HIV-1 (IIIB) was originally obtained from the culture of persistently HIV-1 infected H9 cells and was provided by R. C. Gallo and M. Popovic (National Cancer Institute, National Institutes of Health, Bethesda, Md.). HIV-2 (ROD) was originally obtained from L. M. Montagnier (Pasteur Institute, Paris, France).
(§2) To determine the antiviral activity of the test compounds, CEM cells were suspended at a cell density of approximately 300,000 cells per ml of culture medium and infected with approximately 100 CCID50 (100 CCID50 being the 50% cell culture infective dose) of HIV-1 (IIIB) or HIV-2 (ROD)). Then 100 μl of the infected cell suspensions was added to 200 μl micro titer plate wells containing 100 μl of appropriate serial (5-fold) dilutions of the test compounds. The inhibitory effect of the test compounds on HIV-1 or HIV-2 syncytium formation in CEM cells was examined microscopically on day four post infection.
(§3) In these cases, the percent protection of the cells against virus-induced cytopathicity by the test compounds at the indicated compound concentration in the previous column is given.

HIV-2 (ROD) = assay: Inhibition of HIV-2 syncytium formation in CEM cells; assay type: cell-based; conditions: for EC50 (ug/ml) HIV-2 / EC50: CEM cells, syncytium formation, day four post infection; for HIV-2 % Protection: protection of CEM cells against virus-induced cytopathicity at the concentration in the previous column; for EC50: Human immunodeficiency virus 2, CCRF-CEM, read-out: EC50 (ug/ml) HIV-2
Source text: as §1, §2, §3

Davis strain CMV = assay: Reduction of CMV-induced cytopathicity in HEL cells; assay type: cell-based, human cytomegalovirus (HCMV); conditions: HEL cells; for Antiviral % Inhibition Davis strain CMV: estimate of percent protection at the concentration in the previous column; for Antiviral EC50 (ug/ml) Davis strain CMV / EC50: virus-induced cytopathicity after seven days; for EC50: Human betaherpesvirus 5, 168 h, read-out: Antiviral EC50 (ug/ml) Davis strain CMV
Protocol: Confluent HEL cells grown in […] microtiter plates were inoculated with CMV at an input of 100 PFU (plaque forming units) per well. After a one to two hour incubation period, residual virus was removed and the infected cells were further incubated with MEM (Minimal Essential Medium) (supplemented with 2% inactivated Fetal Calf Serum (FCS), […], and 0.3% sodium bicarbonate) containing varying concentrations of the test compounds. Antiviral activity was expressed as EC50 (50% effective concentration), or test compound concentration required to reduce virus-induced cytopathicity after seven days by 50% compared to the untreated control.
In some cases, the compounds had considerable cytotoxicity against HEL cells, which made determination of the EC50 difficult. In these cases, an estimate of the percent protection at the compound concentration indicated in the previous columns is given.

Row | EC50 (ug/ml) HIV-1 (HIV-1 (IIIB)) | EC50 (ug/ml) HIV-2 (HIV-2 (ROD)) | Antiviral EC50 (ug/ml) Davis strain CMV (Davis strain CMV) [µg/mL] | EC50 (HIV-1 (IIIB)) [µg/mL] | EC50 (HIV-2 (ROD)) [µg/mL] | EC50 (Davis strain CMV) [µg/mL] | SMILES | Antiviral % Inhibition Davis strain CMV (Davis strain CMV) [%] | HIV-1 % Protection (HIV-1 (IIIB)) [%] | HIV-2 % Protection (HIV-2 (ROD)) [%]
1 | >14 µg/mL | 11.0 µg/mL (≈ 36.9 µM) | >5 | – | – | – | Cc1cc[n+]([O-])c(S(=O)(=O)Cc2ccc(Cl)cc2)c1 [Compound 129] | 20.0 | – | –
2 | >100 µg/mL | >100.0 µg/mL | >50 | – | – | – | Cc1ccc[n+]([O-])c1[S+]([O-])Cc1c(Cl)cccc1Cl (stereo not shown) [Compound 138] | 20.0 | 0.0 | 0.0
3 | ≧4 ug/ml | 7.0 µg/mL (≈ 24.8 µM) | >20 | – | – | – | Cc1cc[n+]([O-])c([S+]([O-])Cc2ccc(Cl)cc2)c1 (stereo not shown) [Compound 128] | 40.0 | 37.5 | –
4 | 40.00 µg/mL (≈ 144 µM) | 2.5 µg/mL (≈ 9.01 µM) | 34.5 | – | – | – | Cc1ccccc1C(C)S(=O)(=O)c1cccc[n+]1[O-] (stereo not shown) [Compound 104] | – | – | –
5 | 16.00 µg/mL (≈ 67.1 µM) | >100 µg/mL | >50 | – | – | – | CN1CCCCC1CSc1cccc[n+]1[O-] (racemic) [Compound 156] | 0.0 | – | 0.0
6 | – | – | – | 0.75 (≈ 2.46 µM) | ≥ 20 | 38 (≈ 124 µM) | Cc1ccc(C)c(C(C)S(=O)(=O)c2cc(C)cc[n+]2[O-])c1 (stereo not shown) [Compound 108, 2-[1-(2,5-Dimethylphenyl)ethylsulfonyl]-4-methylpyridine N-oxide] | – | – | 37.5
7 | – | – | – | 0.9 (≈ 3.04 µM) | > 4 | 20 (≈ 67.6 µM) | Cc1ccc(C)c(C(Cl)S(=O)(=O)c2ccccn2)c1 (stereo not shown) [Compound 106, 2-((2,5-dimethylphenyl)chloromethylsulphonyl)pyridine] | – | – | 0.0
8 | 3.25 µg/mL (≈ 12.4 µM) | 20.0 µg/mL (≈ 76.5 µM) | >50 | – | – | – | Cc1ccc(C)c(CS(=O)(=O)c2ccccn2)c1 [Compound 150] | 20.0 | – | –
9 | >20 µg/mL | >100.0 µg/mL | 50.0 | – | – | – | COc1ccc(CSc2cc(CC(C)C)cc[n+]2[O-])cc1 [Compound 134] | – | 0.0 | 0.0
10 | 3.30 µg/mL (≈ 10.6 µM) | >20.00 µg/mL | 12.5 | – | – | – | Cc1ccc[n+]([O-])c1S(=O)(=O)C(C)c1ccccc1Cl (stereo not shown) [Compound 120] | – | – | 0.0

Continued, compound first:

Row | SMILES | EC50 (ug/ml) HIV-1 (HIV-1 (IIIB)) | EC50 (ug/ml) HIV-2 (HIV-2 (ROD)) | Antiviral EC50 (ug/ml) Davis strain CMV (Davis strain CMV) [µg/mL] | EC50 (HIV-1 (IIIB)) [µg/mL] | EC50 (HIV-2 (ROD)) [µg/mL] | EC50 (Davis strain CMV) [µg/mL] | Antiviral % Inhibition Davis strain CMV (Davis strain CMV) [%] | HIV-1 % Protection (HIV-1 (IIIB)) [%] | HIV-2 % Protection (HIV-2 (ROD)) [%]
11 | CCOc1ccccc1CS(=O)(=O)c1cccc[n+]1[O-] [Compound 48] | 9.50 µg/mL (≈ 32.4 µM) | 16.0 µg/mL (≈ 54.5 µM) | >20 | – | – | – | 20.0 | – | –
12 | CC(c1ccccc1)[S+]([O-])c1cccc[n+]1[O-] (stereo not shown) [Compound 102, 2-(1-Phenylethylsulfinyl)pyridine N-oxide] | – | – | – | > 0.8 | > 0.8 | 4.3 (≈ 17.4 µM) | – | 0.0 | 0.0
13 | Cc1ccc(C[S+]([O-])c2cccc[n+]2[O-])cc1C (stereo not shown) [Compound 89] | 2.50 µg/mL (≈ 9.57 µM) | 2.8 µg/mL (≈ 10.7 µM) | 20.0 | – | – | – | – | – | –
14 | Cc1ccc(C)c(C[S+]([O-])c2cccc[n+]2[O-])c1 (stereo not shown) [Compound 3] | 7.20 µg/mL (≈ 27.5 µM) | ≧20 ug/ml | 36.0 | – | – | – | – | – | 37.5
15 | N#Cc1ccc(CS(=O)(=O)c2cccc[n+]2[O-])cc1 [Compound 34] | 9.00 µg/mL (≈ 32.8 µM) | 10.0 µg/mL (≈ 36.5 µM) | >20 | – | – | – | 10.0 | – | –
16 | O=S(=O)(Cc1cccc2ccccc12)c1cccc[n+]1[O-] [Compound 13] | 6.50 µg/mL (≈ 21.7 µM) | 6.0 µg/mL (≈ 20 µM) | >5 | – | – | – | 20.0 | – | –
17 | COc1ccc(C)cc1CSc1cccc[n+]1[O-] [Compound 93] | 8.00 µg/mL (≈ 30.6 µM) | ≧20 ug/ml | >50 | – | – | – | 0.0 | – | 37.5
18 | O=S(=O)(Cc1ccc2ccccc2c1)c1cccc[n+]1[O-] [Compound 53] | 2.33 µg/mL (≈ 7.78 µM) | 4.1 µg/mL (≈ 13.7 µM) | >5 | – | – | – | 20.0 | – | –
19 | Cc1ccc[n+]([O-])c1S(=O)(=O)Cc1ccccc1 [Compound 80] | 15.00 µg/mL (≈ 57 µM) | >20.0 µg/mL | >20 | – | – | – | 0.0 | – | 0.0
20 | CCC(C)(C)c1ccc(CS(=O)(=O)c2cccc[n+]2[O-])cc1 [Compound 40, 2-(((4-(1,1-dimethyl)propyl)phenyl)methylsulfonyl)pyridine-N-oxide] | 3.10 µg/mL (≈ 9.7 µM) | 3.4 µg/mL (≈ 10.6 µM) | 1.5 | – | – | – | – | – | –
21 | CC(C)Cc1ccc(CS(=O)(=O)c2cccc[n+]2[O-])cc1 [Compound 55] | ≧4 ug/ml | 2.6 µg/mL (≈ 8.51 µM) | 3.2 | – | – | – | – | 37.5 | –
22 | O=S(=O)(Cc1ccc(-c2ccccc2)cc1)c1cccc[n+]1[O-] [Compound 54] | ≧4 ug/ml | 4.0 µg/mL (≈ 12.3 µM) | 5.0 | – | – | – | – | 37.5 | –
23 | O=[N+]([O-])c1ccccc1CS(=O)(=O)c1cccc[n+]1[O-] [Compound 42] | 8.00 µg/mL (≈ 27.2 µM) | ≧4 ug/ml | >5 | – | – | – | 10.0 | – | 37.5
24 | Cc1ccc(C)c(CS(=O)(=O)c2ccc(Cl)c[n+]2[O-])c1 [Compound 94] | 1.90 µg/mL (≈ 6.09 µM) | 2.6 µg/mL (≈ 8.34 µM) | 12.0 | – | – | – | – | – | –
25 | Cc1cc(CS(=O)(=O)c2cccc[n+]2[O-])ccc1[N+](=O)[O-] [Compound 66] | 3.10 µg/mL (≈ 10.1 µM) | 2.5 µg/mL (≈ 8.11 µM) | 5.0 | – | – | – | – | – | –
26 | Cc1ccc(CS(=O)(=O)c2cccc[n+]2[O-])c(C)c1 [Compound 52] | 6.00 µg/mL (≈ 21.6 µM) | 6.5 µg/mL (≈ 23.4 µM) | 12.0 | – | – | – | – | – | –
27 | O=S(=O)(Cc1ccc(CS(=O)(=O)c2cccc[n+]2[O-])cc1)c1cccc[n+]1[O-] [Compound 23] | ≧20 ug/ml | ≧20 ug/ml | >20 | – | – | – | 20.0 | 37.5 | 37.5
28 | O=S(=O)(Cc1c(Cl)ccc(Cl)c1Cl)c1cccc[n+]1[O-] [Compound 33] | ≧4 ug/ml | ≧4 ug/ml | 5.0 | – | – | – | – | 37.5 | 37.5
